Source: publication PMC3534021, “Structure of the TPR Domain of AIP: Lack of Client Protein Interaction with the C-Terminal α-7 Helix of the TPR Domain of AIP Is Sufficient for Pituitary Adenoma Predisposition” (PLoS ONE, 2012)
One block for each molecule: values may come before it. Where no end group is shown, it is not given here.

Tests used:
full-length human HSP90β = target: T1, full-length human HSP90β (human, UniProt P08238 1-724); assay: ITC; twenty 1.9 µL aliquots of AIP TPR-domain at 350 µM injected into 30 µM human HSP90β; 20 mM Tris pH 7.5, 5 mM NaCl, 30°C
T1 construct: HSP90β, human, full length; also called FL-hHSP90β; intact HSP90
T1 sequence (P08238 whole entry): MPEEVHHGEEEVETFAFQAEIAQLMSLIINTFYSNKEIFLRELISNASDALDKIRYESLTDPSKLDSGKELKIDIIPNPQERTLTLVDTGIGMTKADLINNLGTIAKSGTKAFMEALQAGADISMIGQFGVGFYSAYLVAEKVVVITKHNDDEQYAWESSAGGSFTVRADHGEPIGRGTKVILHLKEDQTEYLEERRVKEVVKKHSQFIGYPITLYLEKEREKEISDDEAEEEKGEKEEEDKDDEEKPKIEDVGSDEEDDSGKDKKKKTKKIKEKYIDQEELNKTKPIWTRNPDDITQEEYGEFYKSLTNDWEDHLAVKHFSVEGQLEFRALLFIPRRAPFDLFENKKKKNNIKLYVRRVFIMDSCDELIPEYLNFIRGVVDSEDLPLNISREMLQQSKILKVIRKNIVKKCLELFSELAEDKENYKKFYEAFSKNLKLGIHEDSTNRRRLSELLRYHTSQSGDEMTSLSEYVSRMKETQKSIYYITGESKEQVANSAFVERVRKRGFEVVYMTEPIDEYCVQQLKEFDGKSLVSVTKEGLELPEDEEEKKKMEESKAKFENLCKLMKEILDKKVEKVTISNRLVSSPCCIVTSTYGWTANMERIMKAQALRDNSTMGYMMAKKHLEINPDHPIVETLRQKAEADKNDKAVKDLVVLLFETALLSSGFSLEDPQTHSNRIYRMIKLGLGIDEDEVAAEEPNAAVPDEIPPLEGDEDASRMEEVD

[1] = target: T2, TPR domain (residues 166–330) of human AIP, WT (Homo sapiens, UniProt O00170); assay: Isothermal titration calorimetry, wild-type AIP TPR-domain; assay type: binding; conditions: ITC; for N (stoichiometry): first value where two are printed
T2 construct: The TPR domain (residues 166–330) of human AIP; His tag (PreScission cleavable) (cleaved yes); made in house
T2 sequence (O00170 166-330): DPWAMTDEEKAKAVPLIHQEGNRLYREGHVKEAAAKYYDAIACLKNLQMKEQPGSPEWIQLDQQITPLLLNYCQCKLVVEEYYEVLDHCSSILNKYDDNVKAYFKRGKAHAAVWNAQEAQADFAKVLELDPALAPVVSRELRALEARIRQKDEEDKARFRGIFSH
Experimental: (§1) The TPR domain (residues 166–330) of human AIP was expressed as a PreScission cleavable His-tagged protein from pTWO-E (pET-17b derived; personal communication, A. W. Oliver, Sussex University). The TPR domain was purified by talon-affinity chromatography (Clontech, Oxford, UK), then concentrated and desalted on a HIPrep 26/10 desalting column equilibrated in 20 mM Tris pH 7.5 containing 1 mM EDTA. The sample was then cleaved overnight with GST-tagged PreScision protease. The cleaved protein was subsequently passed through a GST column equilibrated in 20 mM Tris pH 7.5, 1 mM EDTA and 150 mM NaCl and then through a second Talon column to remove any remaining uncleaved protein. The flow through was then concentrated and subjected to superdex 75HR gel-filtration chromatography equilibrated in 20 mM Tris pH 7.5, 1 mM EDTA, 1 mM DTT and 500 mM NaCl. Pure TPR domain were concentrated and then desalted on a HIPrep 26/10 column equilibrated in 20 mM Tris pH 7.5 containing 1 mM EDTA. The protein was stored frozen at 2 mg ml^−1.
(§2) The heat of interaction was measured on an ITC200 microcalorimeter (Microcal), with a cell volume of 200 µL, under the same buffer conditions (20 mM Tris, pH 7.5, containing 5 mM NaCl) at 30°C. Twenty 1.9 µL aliquots of AIP TPR-domain at 350 µM were injected into 30 µM of human HSP90β. For peptide interactions twenty 1.9 µL aliquots of peptide ranging from 350 to 600 µM were injected into 30 µM of AIP TPR-domain. Heats of dilution were determined in a separate experiment by diluting protein or peptide into buffer, and the corrected data were fitted using a non-linear least-squares curve-fitting algorithm (Microcal Origin) with three floating variables: stoichiometry, binding constant and change in enthalpy of interaction. ATPase assays were previously described [44]–[46].

[2] = target: T3, AIP TPR-domain R304A mutant (Homo sapiens, UniProt O00170, R304A); assay: Isothermal titration calorimetry, R304A AIP TPR-domain; assay type: binding; conditions: ITC, 20 mM Tris pH 7.5, 5 mM NaCl, 30°C, peptide 350-600 µM injected into 30 µM TPR-domain
T3 construct: The TPR domain (residues 166–330) of human AIP; His tag (PreScission cleavable) (cleaved yes); made in house
T3 sequence (O00170 166-330 R304A): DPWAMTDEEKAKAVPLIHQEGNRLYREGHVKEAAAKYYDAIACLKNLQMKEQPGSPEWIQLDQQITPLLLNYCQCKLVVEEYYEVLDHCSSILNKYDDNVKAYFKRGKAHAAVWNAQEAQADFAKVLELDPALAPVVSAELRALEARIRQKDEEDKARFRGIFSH
Experimental: as §1, §2

[3] = target: T4, AIP TPR-domain R304Q mutant (Homo sapiens, UniProt O00170, R304Q); assay: Isothermal titration calorimetry, R304Q AIP TPR-domain; assay type: binding; conditions: ITC, 20 mM Tris pH 7.5, 5 mM NaCl, 30°C, peptide 350-600 µM injected into 30 µM TPR-domain
T4 construct: The TPR domain (residues 166–330) of human AIP; His tag (PreScission cleavable) (cleaved yes); made in house
T4 sequence (O00170 166-330 R304Q): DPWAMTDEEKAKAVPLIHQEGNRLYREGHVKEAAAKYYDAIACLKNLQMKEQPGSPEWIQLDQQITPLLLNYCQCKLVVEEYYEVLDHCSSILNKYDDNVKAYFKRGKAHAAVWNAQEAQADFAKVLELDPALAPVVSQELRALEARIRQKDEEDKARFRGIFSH
Experimental: as §1, §2

AIP = conditions: cited from earlier work
Description: Recently, mutations in aryl hydrocarbon receptor interacting protein (AIP), [2] have been linked to familial isolated pituitary adenomas (FIPA) [3]–[5], a condition most often characterized by young-onset growth hormone and prolactin-secreting pituitary tumors (reviewed by), which leads to acromegaly and gigantism. The human AIP gene encodes a 37 kDa protein of 330 amino acids that, based on similarities to other proteins, is predicted to have an N-terminal immunophilin-like domain [7] and a C-terminal tetratricopeptide repeat (TPR) domain. Typically, TPR domains consist of ...

[4] = target: AIP TPR-domain E192R mutant; assay: Isothermal titration calorimetry, E192R AIP TPR-domain; assay type: binding, human; conditions: ITC, 20 mM Tris pH 7.5, 5 mM NaCl, 30°C, 350 µM AIP TPR injected into 30 µM HSP90β
Experimental: as §1, with “Pure TPR domain were concentrated and then desalted on a HIPrep 26/10 column equilibrated in 20 mM Tris pH 7.5 containing 1 mM EDTA. The protein was stored frozen at 2 mg ml^−1.” left out
The heat of interaction was measured on an ITC200 microcalorimeter (Microcal), with a cell volume of 200 µL, under the same buffer conditions (20 mM Tris, pH 7.5, containing 5 mM NaCl) at 30°C. […] Heats of dilution were determined in a separate experiment by diluting protein or peptide into buffer, and the corrected data were fitted using a non-linear least-squares curve-fitting algorithm (Microcal Origin) with three floating variables: stoichiometry, binding constant and change in enthalpy of interaction. […]

[5] = 20 mM Tris pH 7.5, 5 mM NaCl, 30°C

Molecule: AQSLAEDDVE [AQSLAEDDVE]
Kd [2]: 16.6 ± 0.5 µM
Kd [3]: 22.5 ± 2.2 µM

Molecule: C=CC[C@@H]1/C=C(\C)C[C@H](C)C[C@H](OC)[C@H]2O[C@@](O)(C(=O)C(=O)N3CCCC[C@H]3C(=O)O[C@H](/C(C)=C/[C@@H]3CC[C@@H](O)[C@H](OC)C3)[C@H](C)[C@@H](O)CC1=O)[C@H](C)C[C@@H]2OC [FK506]
Binding to AIP (AIP): does not bind

Molecule: CO[C@H]1C[C@@H]2CC[C@@H](C)[C@@](O)(O2)C(=O)C(=O)N2CCCC[C@H]2C(=O)O[C@H]([C@H](C)C[C@@H]2CC[C@@H](O)[C@H](OC)C2)CC(=O)[C@H](C)/C=C(\C)[C@@H](O)[C@@H](OC)C(=O)[C@H](C)C[C@H](C)/C=C/C=C/C=C/1C [rapamycin]
Binding to AIP (AIP): does not bind

More lines, now with the values ahead:

Kd (full-length human HSP90β): 11.1 µM
dH (full-length human HSP90β): -4.11 kcal/mol
stoichiometry N (full-length human HSP90β): 0.47
Molecule: TPR domain of human AIP, E192R mutant (domain or fragment)

Kd ([1]; range of the two titrations as given in the text): 14.4 to 18.6 µM
Kd [2]: 15.6 ± 0.85 µM
Kd [3]: 16.2 ± 1.1 µM
Molecule: CSCC[C@H](NC(=O)[C@H](CCCNC(=N)N)NC(=O)[C@H](CO)NC(=O)[C@H](C)NC(=O)[C@H](CC(=O)O)NC(=O)[C@@H](N)CCC(=O)O)C(=O)N[C@@H](CCC(=O)O)C(=O)N[C@@H](CCC(=O)O)C(=O)N[C@H](C(=O)N[C@@H](CC(=O)O)C(=O)O)C(C)C [EDASRMEEVD]

Kd [2]: 22.8 ± 1.6 µM
Kd [3]: 31.1 ± 2.6 µM
Molecule: CC[C@H](C)[C@H](NC(=O)[C@@H](NC(=O)[C@@H]1CCCN1C(=O)CNC(=O)[C@H](CO)NC(=O)CN)[C@@H](C)O)C(=O)N[C@@H](CCC(=O)O)C(=O)N[C@@H](CCC(=O)O)C(=O)N[C@H](C(=O)N[C@@H](CC(=O)O)C(=O)O)C(C)C [GSGPTIEEVD]

ΔH [1, 5]: -4.554 kcal/mol
ΔS [1, 5]: 7.29 Cal/mol/deg
N (stoichiometry) ([1]; 20 mM Tris pH 7.5, 5 mM NaCl, 30°C, for HSP90β given as AIP:HSP90): 0.30
N (stoichiometry) ([1]; 20 mM Tris pH 7.5, 5 mM NaCl, 30°C, for HSP90β given as AIP:HSP90, listed as HSP90β): 0.3
Kd ([1]; 20 mM Tris pH 7.5, 5 mM NaCl, 30°C, peptide 350-600 µM injected into 30 µM AIP TPR-domain (for HSP90β: 350 µM AIP TPR into 30 µM HSP90β)): 13.3 ± 1.8 µM
Kd [4]: 11.1 ± 1.3 µM
Molecule: FL-hHSP90β: full-length human HSP90β chaperone protein
